Assay results published in US9944603B2, “Compounds and methods for the treatment of cystic fibrosis” (Flatley Discovery Lab, LLC, priority 2013, dated 2018).

Target: T1, human F508del CFTR (Homo sapiens, UniProt P13569, DEL508-508)
T1 construct: expressed in transfected cells
Assay: CFTR-YFP Assay, CFTR Corrector Protocol (YFP flux assay)
Format: cell-based
Settings: for Emax: normalized to the positive control, read-out: EMAX (% Efficacy, EMAX normalized to the positive control)

T1 sequence (P13569 with tags, fused parts or gaps DEL508-508): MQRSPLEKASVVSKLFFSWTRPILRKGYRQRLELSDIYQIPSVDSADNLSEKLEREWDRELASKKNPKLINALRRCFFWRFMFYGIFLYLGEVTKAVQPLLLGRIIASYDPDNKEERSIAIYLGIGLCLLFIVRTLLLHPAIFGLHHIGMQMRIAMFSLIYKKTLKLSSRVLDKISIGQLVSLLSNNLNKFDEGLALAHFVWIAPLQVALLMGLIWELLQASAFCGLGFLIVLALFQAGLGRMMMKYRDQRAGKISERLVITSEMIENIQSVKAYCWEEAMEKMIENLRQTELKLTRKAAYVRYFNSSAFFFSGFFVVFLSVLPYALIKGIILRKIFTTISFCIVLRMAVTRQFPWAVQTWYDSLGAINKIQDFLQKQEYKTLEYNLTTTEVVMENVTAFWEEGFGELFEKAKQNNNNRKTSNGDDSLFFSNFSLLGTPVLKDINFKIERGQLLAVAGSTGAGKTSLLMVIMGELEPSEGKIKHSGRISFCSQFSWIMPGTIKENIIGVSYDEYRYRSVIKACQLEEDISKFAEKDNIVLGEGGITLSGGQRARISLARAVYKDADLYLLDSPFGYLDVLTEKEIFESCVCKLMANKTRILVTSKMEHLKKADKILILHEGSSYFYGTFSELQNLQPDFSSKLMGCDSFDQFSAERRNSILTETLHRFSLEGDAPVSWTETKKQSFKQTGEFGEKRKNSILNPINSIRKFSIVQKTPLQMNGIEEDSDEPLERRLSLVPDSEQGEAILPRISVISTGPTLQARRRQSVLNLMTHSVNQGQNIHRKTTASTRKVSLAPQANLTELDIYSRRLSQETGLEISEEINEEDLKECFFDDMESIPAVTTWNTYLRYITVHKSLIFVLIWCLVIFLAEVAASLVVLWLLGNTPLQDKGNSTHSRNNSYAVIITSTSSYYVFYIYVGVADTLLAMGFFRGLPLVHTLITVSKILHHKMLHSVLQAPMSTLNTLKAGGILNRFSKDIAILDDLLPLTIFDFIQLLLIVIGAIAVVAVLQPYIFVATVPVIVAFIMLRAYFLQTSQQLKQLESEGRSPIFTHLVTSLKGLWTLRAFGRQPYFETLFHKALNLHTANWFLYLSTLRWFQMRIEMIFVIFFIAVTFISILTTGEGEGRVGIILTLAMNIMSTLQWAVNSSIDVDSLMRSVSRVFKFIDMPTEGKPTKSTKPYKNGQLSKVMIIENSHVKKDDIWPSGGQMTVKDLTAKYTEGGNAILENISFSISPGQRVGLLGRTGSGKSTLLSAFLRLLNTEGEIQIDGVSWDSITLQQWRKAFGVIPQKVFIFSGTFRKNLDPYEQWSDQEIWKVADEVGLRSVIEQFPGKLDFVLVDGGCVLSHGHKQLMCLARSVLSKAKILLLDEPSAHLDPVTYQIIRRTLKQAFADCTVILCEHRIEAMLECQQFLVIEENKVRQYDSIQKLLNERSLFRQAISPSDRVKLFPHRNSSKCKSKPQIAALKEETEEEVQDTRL

COc1ccc(S(=O)(=O)N2CCC(N(C(=O)Nc3ccccc3Cl)c3ccccn3)CC2)cc1Cl [Example 178]
EC50: < 10 µM
Emax: 10 to 30%

CCc1ccc(S(=O)(=O)N2CCC(N(C(=O)Nc3ccccc3)c3cccc(C)n3)CC2)cc1 [Example 179]
EC50: < 10 µM
Emax: 10 to 30%

CCc1ccc(S(=O)(=O)N2CCC(N(C(=O)Nc3ccccc3)c3ccccn3)CC2)cc1 [Example 180]
EC50: 10 to 20 µM
Emax: 10 to 30%

CCc1ccc(S(=O)(=O)N2CCC(N(c3ccccn3)S(=O)(=O)c3ccccc3)CC2)cc1 [Example 181]
EC50: < 10 µM
Emax: 30 to 80%

CCc1ccc(S(=O)(=O)N2CCC(N(c3ccccn3)S(=O)(=O)c3ccccc3Cl)CC2)cc1 [Example 182]
EC50: < 10 µM
Emax: 10 to 30%

CCc1ccc(S(=O)(=O)N2CCC(N(c3ccccn3)S(=O)(=O)c3c(C)cc(C)cc3C)CC2)cc1 [Example 183]
EC50: < 10 µM
Emax: 30 to 80%

COc1ccc(S(=O)(=O)N2CCC(N(c3ccccn3)S(=O)(=O)c3c(C)cc(C)cc3C)CC2)cc1Cl [Example 184]
EC50: < 10 µM
Emax: 10 to 30%

Cc1cc(C)c(S(=O)(=O)N(c2ccccn2)C2CCN(S(=O)(=O)c3ccc4c(c3)OC(F)(F)O4)CC2)c(C)c1 [Example 185]
EC50: < 10 µM
Emax: 30 to 80%

CCc1ccc(S(=O)(=O)N2CCC(N(c3cccc(C)n3)S(=O)(=O)c3ccccc3)CC2)cc1 [Example 186]
EC50: < 10 µM
Emax: 10 to 30%

COc1ccc(S(=O)(=O)N2CCC(N(c3cccc(C)n3)S(=O)(=O)c3ccccc3)CC2)cc1Cl [Example 187]
EC50: < 10 µM
Emax: 10 to 30%

Cc1cccc(N(C2CCN(S(=O)(=O)c3ccc4c(c3)OC(F)(F)O4)CC2)S(=O)(=O)c2ccccc2)n1 [Example 188]
EC50: < 10 µM
Emax: 10 to 30%

CCc1ccc(S(=O)(=O)N2CCC(N(c3cccc(C)n3)S(=O)(=O)c3ccccc3Cl)CC2)cc1 [Example 189]
EC50: < 10 µM
Emax: 30 to 80%

COc1ccc(S(=O)(=O)N2CCC(N(c3cccc(C)n3)S(=O)(=O)c3ccccc3Cl)CC2)cc1Cl [Example 190]
EC50: < 10 µM
Emax: 10 to 30%

Cc1cccc(N(C2CCN(S(=O)(=O)c3ccc4c(c3)OC(F)(F)O4)CC2)S(=O)(=O)c2ccccc2Cl)n1 [Example 191]
EC50: 10 to 20 µM
Emax: 10 to 30%

CCc1ccc(S(=O)(=O)N2CCC(N(c3cccc(C)n3)S(=O)(=O)c3c(C)cc(C)cc3C)CC2)cc1 [Example 192]
EC50: < 10 µM
Emax: 30 to 80%

COc1ccc(S(=O)(=O)N2CCC(N(c3cccc(C)n3)S(=O)(=O)c3c(C)cc(C)cc3C)CC2)cc1Cl [Example 193]
EC50: < 10 µM
Emax: 30 to 80%

Cc1cc(C)c(S(=O)(=O)N(c2cccc(C)n2)C2CCN(S(=O)(=O)c3ccc4c(c3)OC(F)(F)O4)CC2)c(C)c1 [Example 194]
EC50: < 10 µM
Emax: 30 to 80%

CCc1ccc(S(=O)(=O)N2CCC(N(C(=S)c3ccccc3)c3ccccn3)CC2)cc1 [Example 195]
EC50: < 10 µM
Emax: 30 to 80%

CCc1ccc(S(=O)(=O)N2CCC(N(C(=O)c3ccccc3Cl)c3ccccn3)CC2)cc1 [Example 196]
EC50: 10 to 20 µM
Emax: 30 to 80%

O=C(c1ccccc1Cl)N(c1ccccn1)C1CCN(S(=O)(=O)c2ccc3c(c2)OCO3)CC1 [Example 197]
EC50: < 10 µM
Emax: 10 to 30%

COc1ccc(S(=O)(=O)N2CCC(N(C(=O)c3ccccc3Cl)c3ccccn3)CC2)cc1Cl [Example 198]
EC50: < 10 µM
Emax: 10 to 30%

CCc1ccc(S(=O)(=O)N2CCC(N(C(=O)c3ccncc3Cl)c3ccccn3)CC2)cc1 [Example 199]
EC50: < 10 µM
Emax: 10 to 30%

COc1ccc(S(=O)(=O)N2CCC(N(C(=O)c3ccccc3Cl)c3cccc(C)n3)CC2)cc1F [Example 200]
EC50: < 10 µM
Emax: 10 to 30%

CCc1ccc(S(=O)(=O)N2CCC(N(C(=O)c3ccccc3Cl)c3cccc(C)n3)CC2)cc1 [Example 201]
EC50: < 10 µM
Emax: 30 to 80%

Cc1cccc(N(C(=O)c2ccccc2Cl)C2CCN(S(=O)(=O)c3ccc4c(c3)OCO4)CC2)n1 [Example 202]
EC50: < 10 µM
Emax: 10 to 30%

COc1ccc(S(=O)(=O)N2CCC(N(C(=O)c3ccccc3Cl)c3ccccn3)CC2)cc1F [Example 203]
EC50: < 10 µM
Emax: 1%

O=C(c1ccccc1)N(c1ccccn1)C1CCN(S(=O)(=O)c2ccc3c(c2)OC(F)(F)O3)CC1 [Example 204]
EC50: < 10 µM
Emax: 10 to 30%

Cc1cccc(N(C(=O)c2ccccc2)C2CCN(S(=O)(=O)c3ccc4c(c3)OC(F)(F)O4)CC2)n1 [Example 205]
EC50: < 10 µM
Emax: 10 to 30%

COc1ccc(S(=O)(=O)N2CCC(N(C(=O)c3ccccc3Cl)c3cccc(C)n3)CC2)cc1Cl [Example 206]
EC50: 10 to 20 µM
Emax: 10 to 30%

CCc1ccc(N(C(=O)c2ccccc2Cl)C2CCN(S(=O)(=O)c3ccc(CC)cc3)CC2)cc1 [Example 208]
EC50: 10 to 20 µM
Emax: 30 to 80%
